Experimental data as given in ChEMBL document CHEMBL1201862, “PubChem BioAssay data set” (2004).
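Assay format: 96-well plates, 48-hour exposure. Here, GI50 denotes the concentration required for 50% inhibition of growth.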 Calls of active or inactive are those of the source. Rule as the data show it: active = GI50 up to about 1.1 µM and inactive = higher.

Legend:
Test in all cases: DTP human tumour cell line panel, 48 h
[1] = test system: 786-0
[2] = test system: A549
[3] = test system: ACHN
[4] = test system: COLO 205
[5] = test system: MOLT-4
[6] = test system: Malme-3M
[7] = test system: NCI-H226
[8] = test system: OVCAR-3
[9] = test system: OVCAR-4
[10] = test system: SR
[11] = test system: U-251
[12] = test system: UACC-257
[13] = test system: UACC-62
[14] = test system: UO-31
[15] = test system: HL-60

Structure (SMILES) | GI50 [1] | GI50 [2] | GI50 [3] | GI50 [4] | GI50 [5] | GI50 [6] | GI50 [7] | GI50 [8] | GI50 [9] | GI50 [10] | GI50 [11] | GI50 [12] | GI50 [13] | GI50 [14] | GI50 [15]
CO/S(=N/S(=O)(=O)c1ccccc1)c1ccccc1[N+](=O)[O-] (stereo unspecified) | > 100 µM (inactive) | > 100 µM (inactive) | > 100 µM (inactive) | > 100 µM (inactive) | > 100 µM (inactive) | > 100 µM (inactive) | > 100 µM (inactive) | > 100 µM (inactive) | > 100 µM (inactive) | > 100 µM (inactive) | > 100 µM (inactive) | > 100 µM (inactive) | > 100 µM (inactive) | > 100 µM (inactive) | 
c1ccc(SCCCC(Sc2ccccc2)Sc2ccccc2)cc1 | > 100 µM (inactive) | > 100 µM (inactive) | > 100 µM (inactive) | > 100 µM (inactive) | > 100 µM (inactive) |  |  | > 100 µM (inactive) | > 100 µM (inactive) | > 100 µM (inactive) | > 100 µM (inactive) | > 100 µM (inactive) | > 100 µM (inactive) | > 100 µM (inactive) | > 100 µM (inactive)
S=P(N1CCCC1)(N1CC1)N1CC1 | > 100 µM (inactive) | > 100 µM (inactive) | 71.6 µM (inactive) | > 100 µM (inactive) | 71.4 µM (inactive) | > 100 µM (inactive) | > 100 µM (inactive) | > 100 µM (inactive) | > 100 µM (inactive) | 83.8 µM (inactive) | > 100 µM (inactive) | > 100 µM (inactive) | > 100 µM (inactive) | > 100 µM (inactive) | 56.2 µM (inactive)
NC1=NN(c2ccccc2)C(=O)C1C(=O)CCC(=O)Nc1cccc(C(F)(F)F)c1 (stereo unspecified) | > 100 µM (inactive) | > 100 µM (inactive) | 23.1 µM (inactive) | > 100 µM (inactive) | > 100 µM (inactive) | > 100 µM (inactive) | > 100 µM (inactive) | > 100 µM (inactive) | > 100 µM (inactive) | > 100 µM (inactive) | > 100 µM (inactive) | > 100 µM (inactive) | 53 µM (inactive) | > 100 µM (inactive) | > 100 µM (inactive)
CC(C)(C)/N=C1/CC(C)(C)c2ccccc2/C(=N\c2ccccc2)S1 | 39.4 µM (inactive) | 36.4 µM (inactive) | 28.2 µM (inactive) | 23.3 µM (inactive) | 14.8 µM (inactive) | 27.9 µM (inactive) | 47.3 µM (inactive) | 33.1 µM (inactive) |  |  | 30.6 µM (inactive) | 30 µM (inactive) | 27 µM (inactive) | 31.8 µM (inactive) | 12.2 µM (inactive)
O=C1C[C@H]2CC3(CC[C@H]2CN1)OCCO3 | > 100 µM (inactive) | > 100 µM (inactive) |  | > 100 µM (inactive) | > 100 µM (inactive) | > 100 µM (inactive) |  | > 100 µM (inactive) | > 100 µM (inactive) |  | > 100 µM (inactive) | > 100 µM (inactive) | > 100 µM (inactive) | > 100 µM (inactive) | > 100 µM (inactive)
O=C1C(=O)N(c2ccc(Cl)c(Cl)c2)C(=O)C(=O)C1c1nc2ccccc2o1 | > 100 µM (inactive) | > 100 µM (inactive) | > 100 µM (inactive) | 47.2 µM (inactive) | 31.7 µM (inactive) | 87.9 µM (inactive) | > 100 µM (inactive) | > 100 µM (inactive) | 95.7 µM (inactive) | 30 µM (inactive) | 33.3 µM (inactive) | 98.4 µM (inactive) | 74.8 µM (inactive) | > 100 µM (inactive) | 22.9 µM (inactive)
CCP(C)(=O)CC | > 100 µM (inactive) | > 100 µM (inactive) | > 100 µM (inactive) | > 100 µM (inactive) | > 100 µM (inactive) | > 100 µM (inactive) | > 100 µM (inactive) | > 100 µM (inactive) | > 100 µM (inactive) | > 100 µM (inactive) | > 100 µM (inactive) | > 100 µM (inactive) | > 100 µM (inactive) | > 100 µM (inactive) | > 100 µM (inactive)
CC(C)C(Sc1nc(-c2ccccc2)c(-c2ccccc2)[nH]1)C(=O)N/N=C/c1ccc(Cl)cc1 (stereo unspecified) | 21.6 µM (inactive) | 30.8 µM (inactive) | 31.9 µM (inactive) | 17.7 µM (inactive) | 0.0382 µM (active) | 23.7 µM (inactive) | 17.2 µM (inactive) | 18.2 µM (inactive) | 27.7 µM (inactive) | 32.4 µM (inactive) | 21.7 µM (inactive) | 21 µM (inactive) | 22.8 µM (inactive) | 19.5 µM (inactive) | 26.3 µM (inactive)
O=C(CCC(=O)Nc1ccc(Cl)c(Cl)c1)CC(=O)c1ccc(Cl)cc1 | > 100 µM (inactive) | > 100 µM (inactive) | > 100 µM (inactive) | > 100 µM (inactive) | > 100 µM (inactive) | > 100 µM (inactive) | > 100 µM (inactive) | > 100 µM (inactive) | > 100 µM (inactive) |  | > 100 µM (inactive) | > 100 µM (inactive) | 47.8 µM (inactive) | > 100 µM (inactive) | > 100 µM (inactive)
